Laboratory results as given in ChEMBL document CHEMBL3792365, “Dioxol and dihydrodioxin analogs of 2- and 3-phenylacetonitriles as potent anti-cancer agents with nanomolar activity against a variety of human cancer cells” (2016).

Key:
Type in all cases: functional
[1] = Growth inhibition of human SF539 cells at 10 uM after 48 hrs by sulforhodamine B assay; details: SF-539, 48 h, values are per cent of control
[2] = Growth inhibition of human Hs 578T cells at 10 uM after 48 hrs by sulforhodamine B assay; details: values are per cent of control
[3] = Growth inhibition of human NCI-ADR-RES cells at 10 uM after 48 hrs by sulforhodamine B assay; details: values are per cent of control
NCI-H460 = assay: Growth inhibition of human NCI-H460 cells at 10 uM after 48 hrs by sulforhodamine B assay; details: NCI-H460, 48 h, values are per cent of control
T47D = assay: Growth inhibition of human T47D cells at 10 uM after 48 hrs by sulforhodamine B assay; details: values are per cent of control
[4] = Growth inhibition of human LOXIMVI cells at 10 uM after 48 hrs by sulforhodamine B assay; details: LOX IMVI, values are per cent of control
NCI-H522 = assay: Growth inhibition of human NCI-H522 cells at 10 uM after 48 hrs by sulforhodamine B assay; details: NCI-H522, 48 h, values are per cent of control
A549 = assay: Growth inhibition of human A549/ATCC cells at 10 uM after 48 hrs by sulforhodamine B assay; details: A549, 48 h, values are per cent of control
A498 = assay: Growth inhibition of human A498 cells at 10 uM after 48 hrs by sulforhodamine B assay; details: A498, 48 h, values are per cent of control
M14 = assay: Growth inhibition of human M14 cells at 10 uM after 48 hrs by sulforhodamine B assay; details: M14, 48 h, values are per cent of control
[5] = Growth inhibition of human DU145 cells at 10 uM after 48 hrs by sulforhodamine B assay; details: DU-145, 48 h, values are per cent of control
[6] = Growth inhibition of human SW620 cells at 10 uM after 48 hrs by sulforhodamine B assay; details: SW-620, 48 h, values are per cent of control
MDA-MB-231 = assay: Growth inhibition of human MDA-MB-231 cells at 10 uM after 48 hrs by sulforhodamine B assay; details: MDA-MB-231, 48 h, values are per cent of control
NCI-H23 = assay: Growth inhibition of human NCI-H23 cells at 10 uM after 48 hrs by sulforhodamine B assay; details: NCI-H23, 48 h, values are per cent of control
[7] = Growth inhibition of human BT549 cells at 10 uM after 48 hrs by sulforhodamine B assay; details: BT-549, 48 h, values are per cent of control
ACHN = assay: Growth inhibition of human ACHN cells at 10 uM after 48 hrs by sulforhodamine B assay; details: values are per cent of control
[8] = Growth inhibition of human UACC62 cells at 10 uM after 48 hrs by sulforhodamine B assay; details: UACC-62, 48 h, values are per cent of control
SR = assay: Growth inhibition of human SR cells at 10 uM after 48 hrs by sulforhodamine B assay; details: values are per cent of control
KM12 = assay: Growth inhibition of human KM12 cells at 10 uM after 48 hrs by sulforhodamine B assay; details: KM12, 48 h, values are per cent of control
HT-29 = assay: Growth inhibition of human HT-29 cells at 10 uM after 48 hrs by sulforhodamine B assay; details: HT-29, 48 h, values are per cent of control
[9] = Growth inhibition of human SKOV3 cells at 10 uM after 48 hrs by sulforhodamine B assay; details: SK-OV-3, 48 h, values are per cent of control
MDA-MB-468 = assay: Growth inhibition of human MDA-MB-468 cells at 10 uM after 48 hrs by sulforhodamine B assay; details: MDA-MB-468, 48 h, values are per cent of control
SK-MEL-5 = assay: Growth inhibition of human SK-MEL-5 cells at 10 uM after 48 hrs by sulforhodamine B assay; details: SK-MEL-5, 48 h, values are per cent of control
[10] = Growth inhibition of human OVCAR5 cells at 10 uM after 48 hrs by sulforhodamine B assay; details: OVCAR-5, 48 h, values are per cent of control
K562 = assay: Growth inhibition of human K562 cells at 10 uM after 48 hrs by sulforhodamine B assay; details: K562, 48 h, values are per cent of control
MDA-MB-435 = assay: Growth inhibition of human MDA-MB-435 cells at 10 uM after 48 hrs by sulforhodamine B assay; details: MDA-MB-435, 48 h, values are per cent of control
[11] = Growth inhibition of human SNB19 cells at 10 uM after 48 hrs by sulforhodamine B assay; details: SNB-19, 48 h, values are per cent of control
[12] = Growth inhibition of human Caki1 cells at 10 uM after 48 hrs by sulforhodamine B assay; details: CAKI-1, 48 h, values are per cent of control
[13] = Growth inhibition of human SF268 cells at 10 uM after 48 hrs by sulforhodamine B assay; details: SF-268, 48 h, values are per cent of control
NCI-H226 = assay: Growth inhibition of human NCI-H226 cells at 10 uM after 48 hrs by sulforhodamine B assay; details: NCI-H226, 48 h, values are per cent of control
[14] = Growth inhibition of human HCT116 cells at 10 uM after 48 hrs by sulforhodamine B assay; details: HCT-116, 48 h, values are per cent of control
[15] = Growth inhibition of human TK10 cells at 10 uM after 48 hrs by sulforhodamine B assay; details: TK-10, 48 h, values are per cent of control
[16] = Growth inhibition of human SF295 cells at 10 uM after 48 hrs by sulforhodamine B assay; details: SF-295, 48 h, values are per cent of control
NCI-H322M = assay: Growth inhibition of human NCI-H322M cells at 10 uM after 48 hrs by sulforhodamine B assay; details: values are per cent of control
SN12C = assay: Growth inhibition of human SN12C cells at 10 uM after 48 hrs by sulforhodamine B assay; details: values are per cent of control
[17] = Growth inhibition of human HCT15 cells at 10 uM after 48 hrs by sulforhodamine B assay; details: HCT-15, 48 h, values are per cent of control
U-251 = assay: Growth inhibition of human U251 cells at 10 uM after 48 hrs by sulforhodamine B assay; details: U-251, 48 h, values are per cent of control
[18] = Growth inhibition of human OVCAR4 cells at 10 uM after 48 hrs by sulforhodamine B assay; details: OVCAR-4, 48 h, values are per cent of control
[19] = Growth inhibition of human OVCAR8 cells at 10 uM after 48 hrs by sulforhodamine B assay; details: OVCAR-8, 48 h, values are per cent of control
[20] = Growth inhibition of human COLO205 cells at 10 uM after 48 hrs by sulforhodamine B assay; details: COLO 205, 48 h, values are per cent of control

Compound | growth, % of control at 10 µM [1] [%] | growth, % of control at 10 µM [2] [%] | growth, % of control at 10 µM [3] [%] | growth, % of control at 10 µM (NCI-H460) [%] | growth, % of control at 10 µM (T47D) [%] | growth, % of control at 10 µM [4] [%] | growth, % of control at 10 µM (NCI-H522) [%] | growth, % of control at 10 µM (A549) [%] | growth, % of control at 10 µM (A498) [%] | growth, % of control at 10 µM (M14) [%] | growth, % of control at 10 µM [5] [%] | growth, % of control at 10 µM [6] [%] | growth, % of control at 10 µM (MDA-MB-231) [%] | growth, % of control at 10 µM (NCI-H23) [%] | growth, % of control at 10 µM [7] [%] | growth, % of control at 10 µM (ACHN) [%] | growth, % of control at 10 µM [8] [%] | growth, % of control at 10 µM (SR) [%] | growth, % of control at 10 µM (KM12) [%] | growth, % of control at 10 µM (HT-29) [%] | other results
COc1ccc(/C=C(\C#N)c2ccc3c(c2)OCO3)cc1OC | 103 | 114 | 102 | 106 | 88.7 | 101 | 94.5 | 96.6 | 96.5 | 106 | 104 | 107 | 106 | 97.1 | 91.8 | 111 | 114 | 83 | 96.2 | 106 | growth, % of control at 10 µM [9]: 105%; growth, % of control at 10 µM (MDA-MB-468): 104%; growth, % of control at 10 µM (SK-MEL-5): 103%; growth, % of control at 10 µM [10]: 104%; growth, % of control at 10 µM (K562): 94.8%; growth, % of control at 10 µM (MDA-MB-435): 96.1%; growth, % of control at 10 µM [11]: 105%; growth, % of control at 10 µM [12]: 102%; growth, % of control at 10 µM [13]: 99.5%; growth, % of control at 10 µM (NCI-H226): 114%; growth, % of control at 10 µM [14]: 105%; growth, % of control at 10 µM [15]: 96.5%; growth, % of control at 10 µM [16]: 105%; growth, % of control at 10 µM (NCI-H322M): 96.8%; growth, % of control at 10 µM (SN12C): 103%; growth, % of control at 10 µM [17]: 99.8%; growth, % of control at 10 µM (U-251): 102%; growth, % of control at 10 µM [18]: 110%; growth, % of control at 10 µM [19]: 104%; growth, % of control at 10 µM [20]: 106%
N#C/C(=C\c1ccsc1)c1ccc2c(c1)OCO2 | 105 | 119 | 113 | 104 | 90.7 | 112 | 95.4 | 92.1 | 103 | 105 | 98.5 | 109 | 103 | 106 | 96.5 | 112 | 106 | 86.5 | 94.6 | 102 | growth, % of control at 10 µM [9]: 102%; growth, % of control at 10 µM (MDA-MB-468): 105%; growth, % of control at 10 µM (SK-MEL-5): 102%; growth, % of control at 10 µM [10]: 115%; growth, % of control at 10 µM (K562): 105%; growth, % of control at 10 µM (MDA-MB-435): 107%; growth, % of control at 10 µM [11]: 101%; growth, % of control at 10 µM [12]: 97.3%; growth, % of control at 10 µM [13]: 102%; growth, % of control at 10 µM (NCI-H226): 101%; growth, % of control at 10 µM [14]: 102%; growth, % of control at 10 µM [15]: 104%; growth, % of control at 10 µM [16]: 101%; growth, % of control at 10 µM (NCI-H322M): 90.6%; growth, % of control at 10 µM (SN12C): 104%; growth, % of control at 10 µM [17]: 107%; growth, % of control at 10 µM (U-251): 93.7%; growth, % of control at 10 µM [18]: 91%; growth, % of control at 10 µM [19]: 90.8%; growth, % of control at 10 µM [20]: 101%
